Measured values reported in patent US9902709B2, “Polysubstituted pyridine compound, preparation method, use and pharmaceutical composition” (PEKING UNIVERSITY FOUNDER GROUP CO., LTD., priority 2014, dated 2018).

What was measured:
[1] = test system: human colon cancer HCT-116 transplantation; assay: Effect on tumor weight of human colon cancer HCT-116 transplantation nude mice (Comparative Experiment Example 2); assay type: in vivo; details: QD × 17 day, sorafenib as p-toluenesulfonate, FD-1210005 free form
Source text: Comparative Experiment Example 2
Under aseptic conditions, the well grown human HCT-116 cell suspension in logarithmic growth phase was used to inoculate nude mouse at axillary cavity of right forelimb subcutaneously via an injector. The tumor growth state was observed regularly until the tumor grew to a volume of 100˜300 mm^3.
48 Tumor-bearing mice with a tumor volume of 100˜300 mm^3 were selected and divided into 6 groups, which were 1 solvent control group, 3 positive control groups, and 2 test sample groups. Both the positive control group and the test sample group were administered intragastrically once a day; the solvent control group was administered with 12.5% ethanol & 12.5% water solution of polyoxyethylene castor oil once a day; intragastrical volume was 10 mL/kg.
In the period of administration, tumor diameter was measured twice every week, tumor volume was calculated, and animal body weight was recorded. Animal state was observed when administered, and abnormal state was recorded.
Animal was sacrificed with CO2, and tumor mass was peeled off, weighed, and photographed. After photographed, each tumor mass was cut into two parts, wherein one was stored in 4% paraformaldehyde, and the other was packaged into a freezing tube, and frozen in liquid nitrogen. Animal was subjected to gross anatomy, and organs were observed by eyes to find if they were normal or not.
Observation Indexes: Tumor weight inhibiting rate (IR)=(WC−WT)/WC
wherein WC and WT represented the average tumor weight of solvent control group and the average tumor weight of drug administration group, respectively.
Experimental data was subjected to calculation and relevant statistic processing by Microsoft Office Excel 2003 software. Unless otherwise specified, data was represented as Mean±Standard Error (Mean±S.E.), and t-test is used in the comparison between two groups.

[2] = test system: 786-O humanized renal clear cell xenograft; assay: Tumor-inhibiting effect on 786-O xenograft tumor-bearing mice (Experimental Example 4); assay type: in vivo, SCID-Beige nude mice; details: QD × 14 days, free form; for TGI: from tumor weight
Protocol: 786-O cells were cultured in RPMI-1640 culture medium containing inactivated 10% fetal bovine serum, 100 Um′ penicillin and 100 μg/ml streptomycin as well as 2 mM glutamine in an incubator at 37° C., 5% CO2. During cell culture, the initial concentration was 5×10^5 cells/ml, and the cells were separated into other bottles every 3 to 4 days when the cells reached a cell density of 100%. The tumor cells in logarithmic growth phase were used in tumor inoculation in vivo.
Female SCID-Beige nude mice (SPF grade) was inoculated subcutaneously at right lateral thorax with 786-O tumor cells re-suspended in PBS at 8×10^6 cells/0.1 ml. When the tumor grew into a volume of 800 mm^3, under aseptic conditions, tumor was peeled off. The well grown tumor tissues were cut into tumor mass with a size of 2×2×2 mm^3, and then were used to inoculate animal subcutaneously. When the tumor grew to a volume of about 100 mm^3, the mice were grouped and administered, 5 groups in total, 8 mice per group.
The volume of tumor was measure by using Vernier caliper twice a week. The long diameter and short diameter of tumor were measured. The volume was calculated by the formula: volume=0.5×long diameter×short diameter^2. After the final measurement, the animal was sacrificed and the tumor was peeled off and weighed. Based on the tumor weight of each group, tumor growth-inhibiting rate (TGI) was calculated. […] The data was effectiveness when TGI≧60% and p<0.05 by statistical analysis.

Compound | Tumor weight Mean ± S.E ([1]; 20 mg/kg Ig) | Tumor-inhibiting rate ([1]; 20 mg/kg Ig) | Tumor weight Mean ± S.E ([1]; 60 mg/kg Ig) | Tumor-inhibiting rate ([1]; 60 mg/kg Ig) | Tumor weight Mean ± S.E ([2]; 10 mg/kg po) | TGI ([2]; 10 mg/kg po) | Tumor weight Mean ± S.E ([2]; 20 mg/kg po) | TGI ([2]; 20 mg/kg po) | Tumor weight Mean ± S.E ([2]; 40 mg/kg po) | TGI ([2]; 40 mg/kg po)
CNC(=O)c1cc(Oc2ccc(NC(=O)Nc3ccc(Cl)c(C(F)(F)F)c3)cc2)ccn1 [Comparative example 1, Sorafenib, reference compound] | 0.5628 ± 0.0617 g | 43.28% | 0.4409 ± 0.0857 g | 55.57% | – | – | – | – | – | –
Cn1cc(-c2nccc(Oc3ccc(NC(=O)Nc4ccc(Cl)c(C(F)(F)F)c4)cc3)c2Cl)cn1 [Example 2, 1-(4-chloro-3-(trifluoromethyl)phenyl)-3-(4-(3-chloro-2-(1-methyl-pyrazol-4-yl)-pyridin-4-yl-oxy)phenyl)urea] | – | – | – | – | 37 ± 20 mg | 82% | 32 ± 15 mg | 85% | 16 ± 12 mg | 92%
